# Activity calls are given as the source filed them. For most assays here, no stated cut-off is given here; in the data, actives have a measured Kd and inactives only a lower limit.
# What was measured:
# [1] = molecular target: Serine/threonine-protein kinase 16 (Homo sapiens, UniProt O75716)
# Pyridoxal kinase = molecular target: T1, Pyridoxal kinase (Homo sapiens, UniProt O00764)
# T1 sequence (O00764 whole entry): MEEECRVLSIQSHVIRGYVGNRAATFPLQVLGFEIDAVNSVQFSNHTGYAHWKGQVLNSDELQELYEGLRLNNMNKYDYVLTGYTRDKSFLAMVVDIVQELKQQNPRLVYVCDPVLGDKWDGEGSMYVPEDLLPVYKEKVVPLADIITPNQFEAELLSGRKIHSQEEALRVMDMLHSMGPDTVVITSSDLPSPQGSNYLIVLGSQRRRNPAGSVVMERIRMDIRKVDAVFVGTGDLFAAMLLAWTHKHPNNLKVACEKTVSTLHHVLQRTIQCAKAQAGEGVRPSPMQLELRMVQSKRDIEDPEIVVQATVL
# [2] = molecular target: T2, Breakpoint cluster region protein (Homo sapiens, UniProt P11274)
# T2 sequence (P11274 whole entry): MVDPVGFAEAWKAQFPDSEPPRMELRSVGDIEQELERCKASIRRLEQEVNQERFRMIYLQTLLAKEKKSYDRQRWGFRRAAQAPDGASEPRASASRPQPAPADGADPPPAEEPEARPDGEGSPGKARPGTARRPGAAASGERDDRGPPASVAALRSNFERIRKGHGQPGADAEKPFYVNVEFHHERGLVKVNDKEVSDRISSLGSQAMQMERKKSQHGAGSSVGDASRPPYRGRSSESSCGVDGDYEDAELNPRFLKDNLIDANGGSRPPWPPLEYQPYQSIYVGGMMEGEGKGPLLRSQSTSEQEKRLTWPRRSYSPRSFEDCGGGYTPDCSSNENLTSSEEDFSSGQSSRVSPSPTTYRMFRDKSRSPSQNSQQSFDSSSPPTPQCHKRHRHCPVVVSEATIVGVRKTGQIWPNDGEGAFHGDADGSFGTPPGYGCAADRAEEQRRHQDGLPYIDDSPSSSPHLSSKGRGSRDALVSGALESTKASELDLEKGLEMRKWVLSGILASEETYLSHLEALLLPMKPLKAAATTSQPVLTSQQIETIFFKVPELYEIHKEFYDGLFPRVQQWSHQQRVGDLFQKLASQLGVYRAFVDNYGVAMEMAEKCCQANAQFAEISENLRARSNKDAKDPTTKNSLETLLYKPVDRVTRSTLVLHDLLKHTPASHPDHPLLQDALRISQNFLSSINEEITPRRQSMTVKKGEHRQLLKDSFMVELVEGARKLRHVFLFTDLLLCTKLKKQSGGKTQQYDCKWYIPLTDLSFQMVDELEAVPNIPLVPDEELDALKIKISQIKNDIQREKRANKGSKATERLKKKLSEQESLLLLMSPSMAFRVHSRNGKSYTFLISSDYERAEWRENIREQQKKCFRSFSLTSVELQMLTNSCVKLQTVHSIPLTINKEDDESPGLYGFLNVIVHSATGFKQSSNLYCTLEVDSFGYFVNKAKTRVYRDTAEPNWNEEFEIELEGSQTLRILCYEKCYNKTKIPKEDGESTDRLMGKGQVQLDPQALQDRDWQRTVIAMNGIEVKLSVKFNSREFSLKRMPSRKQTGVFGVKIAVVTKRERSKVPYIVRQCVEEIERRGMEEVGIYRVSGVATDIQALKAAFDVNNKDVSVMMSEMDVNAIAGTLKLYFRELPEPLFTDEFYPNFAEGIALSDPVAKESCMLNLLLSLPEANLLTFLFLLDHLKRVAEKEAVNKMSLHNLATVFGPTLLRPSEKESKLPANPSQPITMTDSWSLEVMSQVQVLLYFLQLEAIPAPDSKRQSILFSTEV
# [3] = molecular target: Tyrosine-protein kinase Lyn (Homo sapiens, UniProt P07948)
# [4] = molecular target: T3, Serine/threonine-protein kinase A-Raf (Homo sapiens, UniProt P10398)
# T3 sequence (P10398 whole entry): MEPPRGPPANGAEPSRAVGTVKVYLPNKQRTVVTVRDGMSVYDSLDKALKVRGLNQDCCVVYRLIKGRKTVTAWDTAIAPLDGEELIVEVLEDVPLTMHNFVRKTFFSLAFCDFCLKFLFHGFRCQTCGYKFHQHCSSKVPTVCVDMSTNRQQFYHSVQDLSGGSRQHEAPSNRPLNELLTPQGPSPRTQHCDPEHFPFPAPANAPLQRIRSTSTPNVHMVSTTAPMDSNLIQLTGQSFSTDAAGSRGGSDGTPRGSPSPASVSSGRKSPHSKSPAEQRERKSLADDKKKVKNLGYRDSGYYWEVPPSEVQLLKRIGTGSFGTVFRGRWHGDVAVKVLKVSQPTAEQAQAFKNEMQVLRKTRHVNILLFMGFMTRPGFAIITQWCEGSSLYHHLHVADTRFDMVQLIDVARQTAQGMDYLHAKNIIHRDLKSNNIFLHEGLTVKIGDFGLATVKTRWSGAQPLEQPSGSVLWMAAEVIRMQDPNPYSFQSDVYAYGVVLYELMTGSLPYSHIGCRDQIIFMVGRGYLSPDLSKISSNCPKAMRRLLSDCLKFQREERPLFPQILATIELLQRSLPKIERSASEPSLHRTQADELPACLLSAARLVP
# [5] = molecular target: T4, MAP/microtubule affinity-regulating kinase 4 (Homo sapiens, UniProt Q96L34)
# T4 sequence (Q96L34 whole entry): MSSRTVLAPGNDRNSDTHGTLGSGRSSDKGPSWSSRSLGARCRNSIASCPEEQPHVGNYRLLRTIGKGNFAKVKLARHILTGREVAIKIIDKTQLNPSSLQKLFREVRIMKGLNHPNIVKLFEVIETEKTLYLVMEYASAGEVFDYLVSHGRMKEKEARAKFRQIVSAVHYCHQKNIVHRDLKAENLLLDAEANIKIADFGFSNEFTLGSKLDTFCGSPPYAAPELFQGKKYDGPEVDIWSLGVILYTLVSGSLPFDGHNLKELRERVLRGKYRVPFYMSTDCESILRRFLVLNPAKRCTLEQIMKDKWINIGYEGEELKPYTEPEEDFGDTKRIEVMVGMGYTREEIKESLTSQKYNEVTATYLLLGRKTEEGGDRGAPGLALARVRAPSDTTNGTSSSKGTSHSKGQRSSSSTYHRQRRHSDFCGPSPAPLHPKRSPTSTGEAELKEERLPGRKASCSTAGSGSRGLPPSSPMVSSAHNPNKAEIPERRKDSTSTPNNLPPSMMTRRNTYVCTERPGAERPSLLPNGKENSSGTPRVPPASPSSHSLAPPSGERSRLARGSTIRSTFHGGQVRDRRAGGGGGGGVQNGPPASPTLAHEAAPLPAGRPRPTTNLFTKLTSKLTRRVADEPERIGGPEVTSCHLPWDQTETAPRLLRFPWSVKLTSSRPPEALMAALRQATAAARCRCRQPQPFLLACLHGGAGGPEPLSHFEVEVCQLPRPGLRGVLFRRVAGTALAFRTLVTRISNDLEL
# Sequence of Tyrosine-protein kinase Lyn (P07948 whole entry): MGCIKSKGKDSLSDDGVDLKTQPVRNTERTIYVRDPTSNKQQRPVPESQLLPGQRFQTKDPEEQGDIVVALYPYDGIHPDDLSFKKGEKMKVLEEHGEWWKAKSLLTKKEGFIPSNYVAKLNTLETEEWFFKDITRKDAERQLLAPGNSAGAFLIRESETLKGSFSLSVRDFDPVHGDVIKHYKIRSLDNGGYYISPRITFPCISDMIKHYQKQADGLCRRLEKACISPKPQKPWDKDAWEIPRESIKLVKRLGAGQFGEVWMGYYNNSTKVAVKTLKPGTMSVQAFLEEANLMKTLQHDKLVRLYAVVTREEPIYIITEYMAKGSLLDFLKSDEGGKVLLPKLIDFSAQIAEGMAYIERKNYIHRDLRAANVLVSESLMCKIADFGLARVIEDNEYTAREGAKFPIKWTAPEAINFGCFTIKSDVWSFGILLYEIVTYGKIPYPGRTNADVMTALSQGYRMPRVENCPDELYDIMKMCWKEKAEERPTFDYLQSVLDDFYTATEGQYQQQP
# Sequence of Serine/threonine-protein kinase 16 (O75716 whole entry): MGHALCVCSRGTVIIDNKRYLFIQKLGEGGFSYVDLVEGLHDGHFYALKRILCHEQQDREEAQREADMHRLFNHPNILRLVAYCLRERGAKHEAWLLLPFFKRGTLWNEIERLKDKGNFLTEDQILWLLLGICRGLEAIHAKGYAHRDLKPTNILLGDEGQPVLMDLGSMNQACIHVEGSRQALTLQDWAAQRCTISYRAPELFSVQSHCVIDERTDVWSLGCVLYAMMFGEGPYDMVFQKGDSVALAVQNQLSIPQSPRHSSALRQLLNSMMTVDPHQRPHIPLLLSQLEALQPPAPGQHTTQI
Structure (SMILES),Kd [1],Kd (Pyridoxal kinase),Kd [2],Kd [3],Kd [4],Kd [5]
O=c1[nH]ccc2cc(OC3CCNCC3)ccc12 [SAR-407899 FREE BASE],> 30 µM (inactive),> 30 µM (inactive),> 30 µM (inactive),> 30 µM (inactive),> 30 µM (inactive),> 30 µM (inactive)
CN1CCN(CCOc2cc(OC3CCOCC3)c3c(Nc4c(Cl)ccc5c4OCO5)ncnc3c2)CC1 [SARACATINIB],> 30 µM (inactive),> 30 µM (inactive),0.016 µM (active),0.113 µM (active),> 30 µM (inactive),> 30 µM (inactive)
CO[C@H]1C[C@@H]2CC[C@@H](C)[C@@](O)(O2)C(=O)C(=O)N2CCCC[C@H]2C(=O)O[C@H]([C@H](C)C[C@@H]2CC[C@@H](O)[C@H](OC)C2)CC(=O)[C@H](C)/C=C(\C)[C@@H](O)[C@@H](OC)C(=O)[C@H](C)C[C@H](C)/C=C/C=C/C=C/1C [SIROLIMUS],> 30 µM (inactive),> 30 µM (inactive),> 30 µM (inactive),> 30 µM (inactive),> 30 µM (inactive),> 30 µM (inactive)
CO[C@H]1C[C@@H]2CC[C@@H](C)[C@@](O)(O2)C(=O)C(=O)N2CCCC[C@H]2C(=O)O[C@H]([C@H](C)C[C@@H]2CC[C@@H](OC(=O)C(C)(CO)CO)[C@H](OC)C2)CC(=O)[C@H](C)/C=C(\C)[C@@H](O)[C@@H](OC)C(=O)[C@H](C)C[C@H](C)/C=C/C=C/C=C/1C [TEMSIROLIMUS],> 30 µM (inactive),> 30 µM (inactive),> 30 µM (inactive),> 30 µM (inactive),> 30 µM (inactive),> 30 µM (inactive)
COc1cc2c(Nc3ccc(Cl)c(Cl)c3F)ncnc2cc1OC[C@@H]1C[C@@H]2CN(C)C[C@@H]2C1 [TESEVATINIB],> 30 µM (inactive),> 30 µM (inactive),0.113 µM (active),1.13 µM (active),> 30 µM (inactive),> 30 µM (inactive)
O=C(Cc1ccc(-c2ccc(OCCN3CCOCC3)cc2)cn1)NCc1ccccc1 [TIRBANIBULIN],> 30 µM (inactive),> 30 µM (inactive),> 30 µM (inactive),> 30 µM (inactive),> 30 µM (inactive),> 30 µM (inactive)
O=C1NC(=O)[C@@H](c2cn3c4c(cccc24)CCC3)[C@@H]1c1c[nH]c2ccccc12 [TIVANTINIB],> 30 µM (inactive),> 30 µM (inactive),> 30 µM (inactive),> 30 µM (inactive),> 30 µM (inactive),> 30 µM (inactive)
C[C@@H](NC(=O)c1ncnc(N)c1Cl)c1ncc(C(=O)Nc2cc(C(F)(F)F)c(Cl)cn2)s1 [TOVORAFENIB],> 30 µM (inactive),> 30 µM (inactive),0.296 µM (active),> 30 µM (inactive),> 30 µM (inactive),> 30 µM (inactive)
Cc1cc(Nc2ncnc3ccc(NC4=NC(C)(C)CO4)cc23)ccc1Oc1ccn2ncnc2c1 [TUCATINIB],> 30 µM (inactive),> 30 µM (inactive),> 30 µM (inactive),> 30 µM (inactive),> 30 µM (inactive),> 30 µM (inactive)

# Second part, the molecule after the results:
Kd [1],Kd (Pyridoxal kinase),Kd [2],Kd [3],Kd [4],Kd [5],Structure (SMILES)
> 30 µM (inactive),> 30 µM (inactive),> 30 µM (inactive),> 30 µM (inactive),> 30 µM (inactive),> 30 µM (inactive),Cn1cc(-c2cnn3c(N)c(Br)c([C@@H]4CCCNC4)nc23)cn1 [SCH-900776]
0.849 µM (active),> 30 µM (inactive),0.133 µM (active),0.357 µM (active),> 30 µM (inactive),1.03 µM (active),CCS(=O)(=O)c1cccc(-c2cc(C(=O)NC3CCN(C)CC3)c(C)c3[nH]c4ncc(C)cc4c23)c1 [TAK-901]
> 30 µM (inactive),> 30 µM (inactive),0.003 µM (active),1.33 µM (active),> 30 µM (inactive),> 30 µM (inactive),CC(C)c1cc(CNc2nc(Nc3cc(C4CC4)[nH]n3)cc(N3CCN(C)CC3)n2)on1 [XL-228]
> 30 µM (inactive),> 30 µM (inactive),> 30 µM (inactive),> 30 µM (inactive),> 30 µM (inactive),> 30 µM (inactive),C[C@@H](N)c1ccc(C(=O)Nc2ccnc3[nH]ccc23)cc1 [Y-39983]
